Like-named read-outs stand apart in the source and are kept apart here. Marks after values point to notes of the source that are not given here.
What was measured:
IL-1β = experiment: Inflammatory factor experiment B: IL-1β in knee synovial tissue (ELISA); type: in vivo, SD rats; details: Rattus norvegicus, po, read-out: IL-1β percentage decrease %
IL-6 = experiment: Inflammatory factor experiment B: IL-6 in knee synovial tissue (ELISA); type: in vivo, SD rats; details: Rattus norvegicus, po, read-out: IL-6 percentage decrease %
[1] = tested on: gouty arthritis rats (sodium urate, right ankle and knee joint cavities); experiment: Pharmacodynamics experiment B on gouty arthritis rats: gait score; type: in vivo, SD rats; details: for Gait Score: dose 0.6 mg/kg gavage, mean; for Gait versus model group, in words: compounds 0.6 mg/kg, colchicine 0.6 and 1.2 mg/kg
Method: (§1) Compounds 12, 16, 19, 30, 34, 36, 38, 40, 44, 48, 49, 52, 58, 69, 83, 98, 102, 119, 121, and 122 were prepared by grinding with 0.5% CMC-Na prior to administration and formulated into suspensions of appropriate concentration (0.12 mg/mL) for gavage, with an administered dose of 0.5 mL/100 g.
(§2) 240 SD rats, males, were acclimatized for one week and weighed 180-220 g. […] The dose of each compound group was 0.6 mg/kg. The compounds in each group were prepared into the corresponding concentration suspension, and the volume of administration was 10 mL/kg.
(§3) 250 mg of sodium urate were added to 9 mL of saline, and 1 mL of Tween-80 solution was added, the resulting mixture was heated and stirred to formulate 10 mL of sodium urate solution. The rats were grasped and fixed, and 0.2 mL of sodium urate solution was injected into the right ankle and knee joint cavities respectively to establish gouty arthritis rat model.
(§4) Before modeling, positive drug and tested compounds were pre-administered for 7 days, once a day, and modeling was performed on day 8, and drug administration by gavage continued for 3 days after modeling.
Gait was scored according to the modified gait grading criteria introduced by Coderre et al. The gait of each rat was observed before and 2 h, 4 h, 8 h, 10 h, 24 h and 48 h after modeling and graded scoring was performed. The gait grading criteria were as follows: 0 point, normal walking; 1 point, slight lameness, the lower limbs were slightly bent; 2 points: moderate lameness, the lower limbs just touched the ground; 3 points, severe lameness, the lower limbs left the ground, and walked on three feet. The mean score of each group was calculated and compared with that of the model group.
(§5) Each experimental data was expressed as the mean, and intergroup comparisons were examined for significance using the ANOVA-Dunnett T-test, with P<0.05 as the significance indicator.

[2] = tested on: gouty arthritis rats (sodium urate, right ankle and knee joint cavities); experiment: Pharmacodynamics experiment B on gouty arthritis rats: ankle swelling rate; type: in vivo, SD rats; details: Rattus norvegicus, po, read-out: Swelling rate (ankle)
Method: as §1, §2, §3, §4
Before modeling and 2 h, 4 h, 8 h, 10 h, 24 h and 48 h after modeling, the circumference of the right ankle joint was measured using a soft ruler or the volume change at the ankle was measured (volumetric method), and the swelling degree and swelling rate of ankle joint were calculated:
Swelling degree (mm)=measured circumference (mm)−baseline circumference (mm)
Swelling rate (%)=swelling degree (mm)/baseline circumference (mm)×100%
as §5

TNF-α = experiment: Inflammatory factor experiment B: TNF-α in knee synovial tissue (ELISA); type: in vivo, SD rats; details: Rattus norvegicus, po, read-out: TNF-α percentage decrease %
ICR mice = experiment: Acute toxicity test in mice by single administration; type: in vivo; details: 14 days, deaths/animals
Method: (§6) Compounds 34, 48, 55 and 58 were ground with 0.5% CMC-Na before administration, and prepared into a suspension of the corresponding concentration for gavage, with an administration volume of 0.1 mL/10 g.
(§7) ICR mice, SPF grade, weighing 18-20 g, 6-8 weeks old, were provided by Nantong University. The Laboratory Animal Production License was SCXK (Su) 2016-0010 and Laboratory Animal Use License was SYXK (Su) 2017-0035.
(§8) After overnight fasting, the drug was administered once by gavage in a volume of 0.1 mL/10 g. The normal group was given the corresponding volume of 0.5% CMC-Na solution according to body weight. The state of the animal was observed after administration, the animals were weighed daily and the number of deaths was recorded for 14 consecutive days.

[3] = as above; type: in vivo, ICR mice; details: both sexes, ICR, mouse, in vivo, po; acute toxicity, mice, single gavage; read-out: Maximum tolerated dose (MTD)
Method: as §6, §7, §8

[4] = synovial tissue of knee joints, 48 h after modeling, dose 0.6 mg/kg

Row | Compound | inhibition in vivo at 0.6 mg/kg (IL-1β; 48 h) [%] | inhibition in vivo at 0.6 mg/kg (IL-6; 48 h) [%] | Gait Score ([1]; 2 h) | Gait Score ([1]; 4 h) | Gait Score ([1]; 8 h) | Gait Score ([1]; 10 h) | Gait Score ([1]; 24 h) | Gait Score ([1]; 48 h) | Gait versus model group, in words [1] | change in vivo at 0.6 mg/kg ([2]; 2 h) [%] | change in vivo at 0.6 mg/kg ([2]; 4 h) [%] | change in vivo at 0.6 mg/kg ([2]; 8 h) [%] | change in vivo at 0.6 mg/kg ([2]; 10 h) [%] | change in vivo at 0.6 mg/kg ([2]; 24 h) [%] | change in vivo at 0.6 mg/kg ([2]; 48 h) [%] | inhibition in vivo at 0.6 mg/kg (TNF-α; 48 h) [%] | further results
1 | COc1cc2c(c(OC)c1OC)-c1ccc(=O)c(O[C@H]3CCOC3)cc1[C@@H](NC(C)=O)CC2 [Compound 19, N—{(S)-1,2,3-trimethoxy-10-oxo-9-{[(S)-tetrahydrofuran-3-yl]oxy}-5,6,7,10-tetrahydrobenzo[a]heptalen-7-yl}acetamide] | 81.5 | 98.1 | 0.0 | 0 | 0** | 0** | 0.2 | 0.1 | significant improvement in gait occurred at different time points | 8.77 | 10.9 | 17.1 | 14.1 | 19.4 | 7.77 | 84.7 | 
2 | COc1cc2c(c(OC)c1OC)-c1ccc(-n3ccc(C)n3)c(=O)cc1[C@@H](NC(C)=O)CC2 [Compound 98, (S)—N-{1,2,3-trimethoxy-10-(3-methyl-1H-pyrazol-1-yl)-9-oxo-5,6,7,9-tetrahydrobenzo[a]heptalen-7-yl}acetamide] | 65 | 167 | 0 | 0 | 0* | 0* | 0.1 | 0 | significant improvement in gait occurred at different time points | 7.9 | 13.4 | 16.4 | 17.7 | 19.7 | 8.9 | 98.9 | 
3 | COc1cc2c(c(OC)c1OC)-c1ccc(C#N)c(=O)cc1[C@@H](NC(C)=O)CC2 [Compound 38, (S)—N-(10-cyano-1,2,3-trimethoxy-9-oxo-5,6,7,9-tetrahydrobenzo[a]heptalen-7-yl)acetamide] | 102 | 69 | 0 | 0 | 0* | 0* | 0 | 0 | significant improvement in gait occurred at different time points | 6.34 | 12.6 | 10.4 | 17.9 | 16.9 | 6.71 | 86.6 | 
4 | CNC(=O)N[C@H]1CCc2cc(OC)c(OC)c(OC)c2-c2cc(C)c(OC)c(=O)cc21 [Compound 44, (S)-1-methyl-(1,2,3,10-tetramethoxy-11-methyl-9-oxo-5,6,7,9-tetrahydrobenzo[a]heptalen-7-yl)urea] | 104 | 19.7 | 0 | 0 | 0* | 0* | 0 | 0 |  | -9.72 | -8.92 | -6.13 | -1.47 | 3.17 | -6.2 | 72.6 | 
5 | COC(=O)c1ccc2c(cc1=O)[C@@H](NC(C)=O)CCc1cc(OC)c(OC)c(OC)c1-2 [Compound 34, methyl (S)-7-acetamido-1,2,3-trimethoxy-9-oxo-5,6,7,9-tetrahydrobenzo[a]heptalen-10-carboxylate] |  |  | 0 | 0 | 0** | 0.1** | 0 | 0 | significant improvement in gait occurred at different time points |  |  |  |  |  |  |  | inhibition in vivo at 0.6 mg/kg (IL-1β; [4]): 93.1%; Mortality rate (ICR mice; single gavage dose 50 mg/kg): 0/6; Mortality rate (ICR mice; single gavage dose 100 mg/kg): 0/6; Mortality rate (ICR mice; single gavage dose 400 mg/kg): 0/6; Mortality rate (ICR mice; single gavage dose 600 mg/kg): 0/6; MTD at 14 days [3]: > 600 mg/kg; inhibition in vivo at 0.6 mg/kg (IL-6; [4]): 115%; change in vivo at 0.6 mg/kg ([2]; 2 h, dose 0.6 mg/kg gavage): 3.98%; change in vivo at 0.6 mg/kg ([2]; 4 h, dose 0.6 mg/kg gavage): 8.32%; change in vivo at 0.6 mg/kg ([2]; 8 h, dose 0.6 mg/kg gavage): 16.2%; change in vivo at 0.6 mg/kg ([2]; 10 h, dose 0.6 mg/kg gavage): 17.3%; change in vivo at 0.6 mg/kg ([2]; 24 h, dose 0.6 mg/kg gavage): 21.1%; change in vivo at 0.6 mg/kg ([2]; 48 h, dose 0.6 mg/kg gavage): 9.96%; inhibition in vivo at 0.6 mg/kg (TNF-α; [4]): 82.9%
6 | CNC(=O)c1cc2c(ccc1=O)-c1c(cc(OC)c(OC)c1OC)CC[C@@H]2NC(C)=O [Compound 49, (S)-7-acetamido-1,2,3-trimethoxy-N-methyl-10-oxo-5,6,7,10-tetrahydrobenzo[a]heptalen-9-carboxamide] | 69.1 | 78.6 | 0 | 0 | 0* | 0* | 0.2 | 0 | significant improvement in gait occurred at different time points | -1.02 | 7.38 | 8.12 | 16.5 | 12.9 | 1.43 | 79.2 | 
7 | CNC(=O)c1ccc2c(cc1=O)[C@@H](NC(C)=O)CCc1cc(OC)c(O)c(OC)c1-2 [Compound 121, (S)-7-acetamido-2-hydroxy-1,3-dimethoxy-N-methyl-9-oxo-5,6,7,9-tetrahydrobenzo[a]heptalen-10-carboxamide] | 67.7 | 231 | 0 | 0 | 0.2 | 0.2 | 0 | 0 |  | 11.8 | 15.6 | 20.9 | 22.5 | 16.3 | 9.4 | 119 | 

From patent publication US20250129012A1, “ANTI-INFLAMMATORY AND ANALGESIC COMPOUNDS AND USE THEREOF” (JIANGSU ATOM BIOSCIENCE AND PHARMACEUTICAL CO., LTD., priority 2021, published 2025)
